Experiments:
[1] = test system: 5-HT2C (formorly knowm as 5-HT1C receptor) receptor; assay: pharmacological studies, 5-HT2C receptor activity; conditions: formerly 5-HT1C receptor
[2] = test system: muscarinic cholinergic receptor; assay: pharmacological studies, muscarinic cholinergic receptor activity

## Cc1cc2c(s1)Nc1ccccc1N=C2N1CCN(C)CC1 [olanzapine, 2-methyl-4-(4-methyl-1-piperazinyl)-10H-thieno[2,3-b][1,5]benzodiazepine]
[1]
  activity at the 5-HT2C receptor: active
[2]
  muscarinic cholinergic receptor activity: has muscarinic cholinergic receptor activity

Source: US5972932A, “Anesthetic method and composition” (Eli Lilly and Company, priority 1997, dated 1999)
